According to paper PMC5343914, “Phytochemical Analysis of Agrimonia pilosa Ledeb, Its Antioxidant Activity and Aldose Reductase Inhibitory Potential” (International Journal of Molecular Sciences, 2017):
Where two headings read alike, the source gives them in different places.

Columns and labels:
[1] = biological target: T1, rat lens aldose reductase (RLAR) (Rattus norvegicus, UniProt P07943)
T1 construct: The supernatant was collected and used as the RLAR; from tissue; host or cells: Sprague–Dawley rat lens homogenate, 10,000 x g supernatant

[2] = biological target: T1, rat lens aldose reductase (RLAR); assay: Determination of RLAR inhibition in vitro (NADPH decrease at 340 nm, DL-glyceraldehyde substrate); type: biochemical; parameters: inhibition: dose or concentration left out as unconfirmed; settings: for IC50: Experiments; for inhibition: Table 2, printed under head DPPH/Experiments;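 on all read-outs here: crude enzyme from Sprague–Dawley rat lens homogenate supernatant, absorbance read over 3 min in pH 6.2 potassium phosphate buffer with 1.6 mM NADPH and 25 mM substrate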
Protocol: Crude RLAR was prepared as follows: lenses weighing 250–280 g were removed from Sprague–Dawley rats and frozen at −70 °C until use. […] Non-cataractous transparent lenses were pooled and a homogenate was prepared in 0.1 M phosphate-buffered saline (pH 6.2). RLAR homogenate was then centrifuged at 10,000× g for 20 min at 4 °C in a refrigerated centrifuge. The supernatant was collected and used as the RLAR. All procedures were carried out at 4 °C [37].
RLAR activity was assayed spectrophotometrically by measuring the decrease in the absorption of NADPH at 340 nm over a 3-min period using DL-glyceraldehyde as the substrate. Each 1.0 mL cuvette contained equal units of the enzyme, 0.10 M potassium phosphate buffer (pH 6.2), 1.6 mM NADPH, 25 mM DL-glyceraldehyde (the substrate), and an inhibitor or dimethyl sulfoxide (DMSO).

[3] = DPPH free radical scavenging capacity
Protocol: The stable free radical was used to determine the free radical-scavenging activity of the extracts. Briefly, a 0.32 mM solution of DPPH in MeOH was prepared, and 180 µL of this solution was mixed with 30 µL of each sample at concentrations of 0.05–1.0 mg/mL in DMSO. After 20 min of incubation in the darkroom, the decrease in the absorbance of the solution was measured at 570 nm on a microplate reader (EL800 Universal Microplate reader, Bio-Tek instruments, Winooski, VT, USA). DPPH inhibitory activity was expressed as the percentage inhibition (%) of DPPH in the aforementioned assay system, and was calculated as [1 − (Asample − Ablank/Acontrol − Ablank)] × 100%, where Acontrol is the absorbance of DPPH solution (180 µL) with methanol (30 µL); Ablank is the absorbance of distilled water (180 µL) with methanol (30 µL); Asample is the absorbance of DPPH solution (180 µL) with sample solution (30 µL).

[4] = biological target: T2, recombinant human aldose reductase (RHAR) (Homo sapiens, UniProt P15121); assay: Determination of inhibition type of RHAR (Lineweaver-Burk plots); type: biochemical; settings: DL-glyceraldehyde 1.0 to 25.0 mM
T2 construct: purchased Wako Pure Chemical Industries (Osaka, Japan)
Protocol: Reaction mixtures consisted of 0.1 M potassium phosphate, 1.6 mM NADPH, and 2 mM of RHAR with varied concentrations of substrate DL-glyceraldehyde and AR inhibitor in a total volume of 600 μL. […] RHAR activity was assayed by measuring the decrease in absorption of NADPH after substrate addition at 340 nm using a Bio Tek Power Wave XS spectrophotometer (Bio Tek Instruments, Winooski, VT, USA) [41].

[5] = Offline DPPH HPLC assay of the n-BuOH fraction (peak area reduction); settings: n-BuOH fraction 20 mg/mL mixed with […] DPPH, 20 min, HPLC 254 nm
Protocol: The sample was analyzed using an Agilent Technologies modular model 1200 system with a vacuum degasser (G1322A), a quaternary pump (G1311A), an auto-sampler (G1329A), a thermo-statted column compartment (G1316A), and a variable wavelength detector (VWD, G1314D) system. The separation was achieved on an Eclipse XDB-phenyl column (150 mm × 4.6 mm, 3.5 μm) maintained at 30 °C. The elution solvents were 0.1% trifluoroacetic acid (A) and MeOH (B) with the following gradient: 20%–30% B (0–3 min), 30%–40% B (3–10 min), 40%–50% B (10–20 min), 50%–60% B […], 60%–100% B (25–35 min), 100%–100% B (35–38 min), 100%–20% B (38–40 min), and 20%–20% B (40–45 min). Injection volume was 10 µL (sample concentration: 1 mg/mL) and UV wavelength was 254 nm.
The offline DPPH HPLC assay was performed by modifying a previously-described protocol. Thirty microliters (20 mg/mL in MeOH) of the n-BuOH fraction from APE were mixed with 180 μL prepared DPPH solution (0.32 mM). The mixture was incubated in the dark for 20 min, then filtered through a 0.45-μm filter for HPLC analysis. The n-BuOH (20 mg/mL in MeOH) was used as a control. The extent of peak decrease is expressed as a quantitative reduction.

[6] = test system: sorbitol accumulation in rat lenses; assay: Lens culture and intracellular sorbitol measurement (ex vivo); settings: compound 5.0 μg/mL; for Inhibition (%) of sorbitol accumulation in rat lens: isolated rat lens ex vivo; for Sorbitol Content (mg)/Lens Wet Weight (g): isolated rat lens, 30 mM glucose medium, 6 d
Protocol: Lenses isolated from 10-week-old Sprague–Dawley rats using the registration number mentioned in the section of 4.5 were cultured for 6 d in TC-199 medium that contained 15% fetal bovine serum, 100 units/mL penicillin, and 0.1 mg/mL streptomycin, under sterile conditions and an atmosphere of 5% CO2 and 95% air at 37 °C. Samples were dissolved in DMSO. The lenses were divided into three groups and cultured in medium containing 30 mM glucose and RLAR-active compounds. Each lens was placed in a well containing 2.0 mL of medium. Sorbitol was determined by HPLC using the methods mentioned in the section of 4.7 after its derivatization by reaction with benzoic acid to a fluorescent compound [42].

[7] = biological target: T2, recombinant human aldose reductase (RHAR); settings: cited from earlier work; for Inhibition type (References): Table 3; for inhibition pattern against RHAR: ref Lee et al., Ha et al., Chethan et al. 31, 32, 33
[8] = literature value; read-out: RLAR IC50 (References); cited from earlier work

Compound	IC50 [2]	inhibition [2]	IC50 [3]	IC50 [1, 8]	Inhibition (%) of sorbitol accumulation in rat lens [6]	Sorbitol Content (mg)/Lens Wet Weight (g) [6]	other results
O=C1O[C@H]([C@@H](O)CO)C(O)=C1O [L-Ascorbic acid, L-ascorbic acid]			147.3 ± 0.43 µM				Inhibition (%) DPPH ([3]; Table 1, concentration not in table, text b9: crude extract 7.1 μg/mL): 81.0 ± 0.01%
O=C(O)[C@H]1O[C@@H](Oc2cc(O)c3c(=O)cc(-c4ccc(O)c(O)c4)oc3c2)[C@H](O)[C@@H](O)[C@@H]1O [Luteolin-7-O-glucuronide (LGN), luteolin-7-O-glucuronide]	0.7 ± 0.54 µM	83.3 ± 0.88%	80.6 ± 0.38 µM	3.1 µM	91.8 ± 9.01%	0.12 ± 0.01 mg/g	Inhibition type [4]: Noncompetitive; peak area reduction (PAR) [5]: lower than 20.0%
O=C(OC1OC2COC(=O)c3cc(O)c(O)c(O)c3-c3c(cc(O)c(O)c3O)C(=O)OC2C2OC(=O)c3cc(O)c(O)c(O)c3-c3c(cc(O)c(O)c3O)C(=O)OC12)c1cc(O)c(O)c(Oc2c(C(=O)OC3OC4COC(=O)c5cc(O)c(O)c(O)c5-c5c(cc(O)c(O)c5O)C(=O)OC4C4OC(=O)c5cc(O)c(O)c(O)c5-c5c(cc(O)c(O)c5O)C(=O)OC34)cc(O)c(O)c2O)c1 (stereo not drawn) [Agrimoniin (AM), agrimoniin]	1.6 ± 0.12 µM		13 ± 0.06 µM		47.6 ± 1.34%	0.77 ± 0.02 mg/g	Inhibition type [4]: Noncompetitive
O=c1c(O)c(-c2ccc(O)c(O)c2)oc2cc(O)cc(O)c12 [Quercetin (QC), quercetin]			70.4 ± 0.15 µM		85.7 ± 8.32%	0.21 ± 0.02 mg/g	Inhibition type (References) [7]: Noncompetitive [31]; inhibition pattern against RHAR [7]: noncompetitive; inhibition at 10 µg/mL [2]: 74.1 ± 0.85%
O=c1c(O[C@@H]2O[C@H](CO)[C@H](O)[C@H](O)[C@H]2O)c(-c2ccc(O)c(O)c2)oc2cc(O)cc(O)c12 [Hyperin (HP), hyperin]	4.1 ± 0.32 µM	90.8 ± 0.96%	73.3 ± 0.23 µM	3 µM			
O=C(O)CC1(CC(=O)O)CCCC1 [TMG, tetramethylene glutaric acid]	0.5 ± 0.05 µM			1 µM			Inhibition (%) RLAR ([2]; Table 1, concentration not in table, text b9: crude extract 10.0 μg/mL, EtOAc, n-BuOH fractions and TMG 1.0 μg/mL): 99.7 ± 0.11%
O=c1c(O[C@@H]2O[C@H](CO)[C@@H](O)[C@H](O)[C@H]2O)c(-c2ccc(O)c(O)c2)oc2cc(O)cc(O)c12 [Isoquercitrin (IQC), Isoquercitrin]	5.1 ± 0.88 µM	41 ± 1.07%	65.9 ± 0.46 µM	4.5 µM			
O=c1cc(-c2ccc(O)c(O)c2)oc2cc(O)cc(O)c12 [Luteolin (LT), luteolin]		80.2 ± 0.9%	88.2 ± 0.52 µM		91.8 ± 7.91%	0.12 ± 0.01 mg/g	Inhibition type (References) [7]: Mixed type [30]; inhibition pattern against RHAR [7]: mixed-type
O=c1cc(-c2ccc(O)cc2)oc2c([C@@H]3O[C@H](CO)[C@@H](O)[C@H](O)[C@H]3O)c(O)cc(O)c12 [Vitexin (VT), vitexin]	> 30 µM	12.2 ± 0.95%	> 250 µM	> 30 µM			DPPH free radical scavenging activity (in words) [3]: no DPPH free radical scavenging activity
O=c1cc(-c2ccc(O)cc2)oc2cc(O)cc(O)c12 [Apigenin (AG), apigenin]	3.2 ± 0.21 µM	81.8 ± 1.2%	156.3 ± 1.21 µM				IC50 ([1]; read-out: RLAR IC50 (References); literature value; cited from earlier work): 2.2 µM
Oc1cc(O)c2c(c1)OC(c1ccc(O)c(O)c1)C(O)C2 (stereo not drawn) [Catechin (CT), catechin]	> 30 µM	7.2 ± 1.02%	106.7 ± 0.43 µM	> 30 µM			
C[C@@H]1O[C@@H](OC[C@H]2O[C@@H](Oc3c(-c4ccc(O)c(O)c4)oc4cc(O)cc(O)c4c3=O)[C@H](O)[C@@H](O)[C@@H]2O)[C@H](O)[C@H](O)[C@H]1O [Rutin (RT), rutin]	9.5 ± 0.75 µM	31.7 ± 0.65%	66.8 ± 0.34 µM				peak area reduction (PAR) [5]: lower than 20.0%
C[C@@H]1O[C@@H](Oc2c(-c3ccc(O)c(O)c3)oc3cc(O)cc(O)c3c2=O)[C@H](O)[C@H](O)[C@H]1O [Quercitrin (QU), quercitrin]	0.2 ± 0.02 µM		77.9 ± 0.27 µM		76.9 ± 5.32%	0.34 ± 0.02 mg/g	Inhibition type (References) [7]: Uncompetitive [29]; inhibition pattern against RHAR [7]: uncompetitive; inhibition at 10 µg/mL [2]: 97.4 ± 1.38%; RLAR potency relative to positive control TMG (times higher) ([2]; IC50 0.2 μM vs TMG 0.5 μM): 2.5 times

Now from value to molecule, other results behind:

IC50 [2]	inhibition [2]	IC50 [3]	Compound	IC50 [1, 8]	Inhibition (%) of sorbitol accumulation in rat lens [6]	Sorbitol Content (mg)/Lens Wet Weight (g) [6]	other results
15.2 ± 1.32 µM	11.8 ± 0.81%	91.6 ± 0.68 µM	O=c1c(O)c(-c2ccc(O)cc2)oc2cc(O)cc(O)c12 [Kaempferol (KP), kaempferol]	10 µM			
4.3 ± 0.14 µM	40.2 ± 0.56%	> 250 µM	O=c1cc(-c2ccc(O)cc2)oc2cc(O[C@@H]3O[C@H](CO)[C@@H](O)[C@H](O)[C@H]3O)cc(O)c12 [Apigenin-7-O-glucoside (AGC), apigenin-7-O-glucoside]	23 µM			peak area reduction (PAR) [5]: lower than 20.0%; DPPH free radical scavenging activity (in words) [3]: almost no DPPH free radical scavenging activity
> 30 µM	< 0%	> 250 µM	O=C(O)[C@H]1O[C@@H](Oc2cc(O)c3c(=O)cc(-c4ccc(O)cc4)oc3c2)[C@H](O)[C@@H](O)[C@@H]1O [Apigenin-7-O-glucuronide (AGN), apigenin-7-O-glucuronide]				peak area reduction (PAR) [5]: lower than 20.0%; RLAR inhibitory activity (in words) [2]: inactive; DPPH free radical scavenging activity (in words) [3]: almost no DPPH free radical scavenging activity
5.1 ± 0.89 µM	53.3 ± 1.14%	> 250 µM	O=c1c(O[C@@H]2O[C@H](CO)[C@@H](O)[C@H](O)[C@H]2O)c(-c2ccc(O)cc2)oc2cc(O)cc(O)c12 [Astragalin (AS), astragalin]	> 30 µM			DPPH free radical scavenging activity (in words) [3]: no DPPH free radical scavenging activity
8.1 ± 0.72 µM	46.9 ± 0.95%	71.5 ± 0.29 µM	O=c1cc(-c2ccc(O)c(O)c2)oc2cc(O[C@@H]3O[C@H](CO)[C@@H](O)[C@H](O)[C@H]3O)cc(O)c12 [Luteolin-7-O-glucoside (LGC), luteolin-7-O-glucoside]	7.5 µM			peak area reduction (PAR) [5]: lower than 20.0%
		> 250 µM	C[C@@H]1O[C@@H](Oc2c(-c3ccc(O)cc3)oc3cc(O)cc(O)c3c2=O)[C@H](O)[C@H](O)[C@H]1O [Afzelin (AZ), afzelin]		93.2 ± 8.67%	0.10 ± 0.01 mg/g	DPPH free radical scavenging activity (in words) [3]: no DPPH free radical scavenging activity
